Test results published in patent publication US20230365558A1, “TETRAHYDROISOQUINOLINE DERIVATIVE AND USE THEREOF” (MEDSHINE DISCOVERY INC., priority 2020, published 2023).
Like-named read-outs stand apart in the source and are kept apart here.

How the values were obtained:
PRMT5 enzyme = PRMT5 enzyme (Homo sapiens (Human), UniProt O14744); assay: PRMT5 enzyme inhibitory activity assay (LANCE Ultra TR-FRET); format: biochemical
Protocol: Experimental objective: To test the inhibitory effect of compounds on PRMT5 enzyme activity
Experimental materials: PRMT5 enzyme
The plate was incubated at 25° C. for 30 min, then added with substrate, and reacted at 25° C. for 90 min. After 90 min, the detection reagent was added to the 384-well plate using PerkinElmer LANCE Ultra TR-FRET standard method to combine with the enzyme-substrate reaction product. […] Raw data were used to calculate the inhibition rate of the test compounds using the following equation: […]
(§1) The inhibition rates were imported into Excel separately to calculate the inhibition rates of compounds at different concentrations, and then XLfit software was used to plot inhibition curves and calculate relevant parameters, including minimum inhibition rate, maximum inhibition rate and IC50.

[1] = test system: Z-138 non-Hodgkin's lymphoma cells; assay: In vitro anti-proliferation assay of Z-138 cells (CellTiter-Glo, 6 days); format: cell-based, human; details: read-out: IC50 (nM), in vitro anti-proliferative activity on Z-138 tumor cells
Protocol: The plate was incubated at 37° C., CO2 and 100% relative humidity for 6 days. Samples were processed using Promega CellTiter-Glo Luminescent Cell Viability Assay Kit (Promega-G7571) standard method, and the luminescent signal was detected on a TECAN Spark®10M plate reader. Raw data were used to calculate the inhibition rate of the test compounds using the following equation: […]
as §1

[2] = Pharmacokinetic evaluation in CD-1 mice; details: for Clearance rate CL / Concentration integral AUC / Half-life T1/2 / Bioavailability F: CD-1 mice; for AUC / clearance / half-life / bioavailability: male, CD-1, mouse, in vivo
Protocol: Experimental objective: To study the pharmacokinetic parameters of the compounds in CD-1 mice
Animal experimental design: Male CD-1 mice (28.08 to 29.01 g, 6 to 7 weeks old), purchased from Shanghai Family Planning Research Institute, n=2/group, 4 mice in total; blood collection time points (h): 0.083 (intravenous injection only), 0.25 (intragastric administration only), 0.5, 1, 2, 4, 8, 10 and 24; compound dose by tail vein injection: 1 mg/kg; single dose by intragastric administration: 5 mg/kg; intravenous and intragastric administration vehicles: 20% N,N-dimethylacetamide aqueous solution, 20% hydroxypropyl-β-cyclodextrin aqueous solution, 5% DMSO/50% PEG400/45% water for injection or 10% Solutol/30% PEG400/60% water for injection. All animals had free access to water during the experiment, fasted overnight before administration, and resumed food supply 4 hours after administration. The entire animal experiment complied with the Institutional Animal Care and Use Committee (IACUC) animal welfare.
Sample collection and storage: After administration, approximately 0.03 mL of blood was collected from the saphenous vein of the mouse at each time point into a pre-frozen commercial EDTA-K2 tube, and placed on wet ice until centrifugation. Blood samples were centrifuged at 4° C., 3,200 g for 10 min. Plasma was collected separately, transferred to a pre-labeled 96-well plate, fast frozen on dry ice, and stored at −70±10° C. until LC-MS/MS analysis.
Pre-treatment of plasma samples: 3 μL of unknown, standard curve, QC, diluted QC and single and double blank samples were taken and placed in 1.5 mL tubes, and 60 μL of internal standard solution (internal standard: Labetalol 100 ng/mL acetonitrile solution, double blank with the same volume of pure acetonitrile) was added. The samples were vortexed for at least 15 seconds, and centrifuged at 4° C., 12,000 g for 15 min. 50 μL of the supernatant was taken and placed on a clean 96-well plate, and 200 μL of 70% acetonitrile was added. The plate was vortex at 800 rpm for 10 min, and centrifuged at 4° C., 3,220 g for 5 min. 2.0 μL of the supernatant was taken for LC-MS/MS analysis. 10-fold sample dilution procedure: 2 μL of the sample was added to 18 μL of blank matrix; 2-fold sample dilution procedure: 2 μL of the sample was added to 2 μL of blank matrix. Plasma was processed in the same manner as undiluted samples. The linear range was 4.00 to 6000 nM. Plasma concentrations would be analyzed with Triple Quad 6500 Plus, and pharmacokinetic parameters would be calculated with Phoenix WinNonlin 6.3.

[3] = injection administration (1 mg/kg)

Chain of PRMT5 enzyme (O14744 whole entry): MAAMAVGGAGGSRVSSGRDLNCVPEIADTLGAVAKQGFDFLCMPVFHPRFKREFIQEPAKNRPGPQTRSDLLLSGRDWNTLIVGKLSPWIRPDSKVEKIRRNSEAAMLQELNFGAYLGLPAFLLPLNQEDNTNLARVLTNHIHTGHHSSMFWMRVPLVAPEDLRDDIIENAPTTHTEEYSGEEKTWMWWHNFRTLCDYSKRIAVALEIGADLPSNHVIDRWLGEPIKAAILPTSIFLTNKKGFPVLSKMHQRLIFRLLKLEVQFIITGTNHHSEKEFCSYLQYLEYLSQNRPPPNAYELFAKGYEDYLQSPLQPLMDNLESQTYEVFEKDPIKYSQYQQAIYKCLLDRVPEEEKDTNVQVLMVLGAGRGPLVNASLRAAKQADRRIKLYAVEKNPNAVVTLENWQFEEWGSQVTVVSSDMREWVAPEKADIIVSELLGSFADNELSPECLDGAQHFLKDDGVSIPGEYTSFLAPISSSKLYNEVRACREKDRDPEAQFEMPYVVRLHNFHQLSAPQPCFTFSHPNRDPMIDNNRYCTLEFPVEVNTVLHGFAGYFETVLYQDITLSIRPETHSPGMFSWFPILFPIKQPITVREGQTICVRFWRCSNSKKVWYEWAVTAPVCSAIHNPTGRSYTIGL
Chain of PRMT5 enzyme (Q9BQA1 whole entry partner): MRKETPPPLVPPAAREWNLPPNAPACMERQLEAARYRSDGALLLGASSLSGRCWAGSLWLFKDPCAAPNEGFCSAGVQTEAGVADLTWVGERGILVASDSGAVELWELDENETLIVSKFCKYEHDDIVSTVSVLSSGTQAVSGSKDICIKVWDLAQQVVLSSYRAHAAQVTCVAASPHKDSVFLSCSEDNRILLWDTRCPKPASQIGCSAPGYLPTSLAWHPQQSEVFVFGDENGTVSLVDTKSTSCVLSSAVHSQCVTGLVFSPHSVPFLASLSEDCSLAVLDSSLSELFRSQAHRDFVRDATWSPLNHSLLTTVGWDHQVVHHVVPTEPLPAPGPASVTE

## O=C(NC[C@H](O)CN1CCc2ccccc2C1)c1ccc2c(c1)NC(=O)C1(CCCC1)O2 [Compound 2]
PRMT5 enzyme
  IC50: 128 nM
[1]
  IC50: 24 nM
[2]; [3]
  Clearance rate CL: 39.7 mL/min/kg
  Concentration integral AUC: 967 nM·h
  Half-life T1/2: 33.6 min
[2]; oral administration (5 mg/kg)
  Bioavailability F: 8.6%
  Concentration integral AUC: 417 nM·h

## O=C(NC[C@H](O)CN1CCc2ccccc2C1)c1ccc2c(c1)NC(=O)C1(CCCCC1)O2 [Compound 3]
PRMT5 enzyme
  IC50: 18 nM
[1]
  IC50: 78 nM
[2]; [3]
  Clearance rate CL: 78.1 mL/min/kg
  Concentration integral AUC: 474 nM·h
  Half-life T1/2: 9.6 min
[2]; oral administration (5 mg/kg)
  Bioavailability F: 7.2%
  Concentration integral AUC: 171 nM·h

## O=C(NC[C@H](O)CN1CCc2ccccc2C1)c1ccc2c(c1)NC(=O)C1(CCOCC1)O2 [Compound 4]
PRMT5 enzyme
  IC50: 22 nM
[2]; [3]
  Clearance rate CL: 63.3 mL/min/kg
  Concentration integral AUC: 583 nM·h
  Half-life T1/2: 16.2 min
[2]; oral administration (5 mg/kg)
  Bioavailability F: 21.5%
  Concentration integral AUC: 626 nM·h

## O=C(NC[C@H](O)CN1CCc2ccccc2C1)c1cnc2c(c1)NC(=O)C1(CCC1)O2 [Compound 6]
[1]
  IC50: 6 nM
[2]; [3]
  Clearance rate CL: 42.1 mL/min/kg
  Concentration integral AUC: 944 nM·h
  Half-life T1/2: 14.4 min
[2]; oral administration (5 mg/kg)
  Bioavailability F: 16.4%
  Concentration integral AUC: 773 nM·h

## O=C(NC[C@H](O)CN1CCc2ccccc2C1)c1ccc2c(c1)NC(=O)C1(CC1)O2 [Compound 7]
[1]
  IC50: 73 nM
[2]; [3]
  Clearance rate CL: 17.7 mL/min/kg
  Concentration integral AUC: 2313 nM·h
  Half-life T1/2: 82.8 min
[2]; oral administration (5 mg/kg)
  Bioavailability F: 64.2%
  Concentration integral AUC: 7419 nM·h

## CC(C)N1CC2(C1)Oc1ccc(C(=O)NC[C@H](O)CN3CCc4ccccc4C3)cc1NC2=O [Compound 9]
PRMT5 enzyme
  IC50: 36 nM
[1]; Homo sapiens, Z-138, 144 h
  IC50: 100 nM
[2]; 1 mg/kg
  AUC: 0.336 µM·h
  clearance: 107 mL/min/kg
  half-life: 129 min
[2]; po, 5 mg/kg
  AUC: 0.168 µM·h
  bioavailability: 10%

## O=C(NC[C@H](O)CN1CCc2ccccc2C1)c1ccc2c(c1)NC(=O)C1(CN(CC(F)(F)F)C1)O2 [Compound 10]
[1]; Homo sapiens, Z-138, 144 h
  IC50: 23 nM
[2]; 1 mg/kg
  AUC: 0.785 µM·h
  clearance: 42.1 mL/min/kg
  half-life: 33 min
[2]; po, 5 mg/kg
  AUC: 0.572 µM·h
  bioavailability: 14.6%

## CC(=O)N1CC2(C1)Oc1ccc(C(=O)NC[C@H](O)CN3CCc4ccccc4C3)cc1NC2=O [Compound 11]
[1]; Homo sapiens, Z-138, 144 h
  IC50: 88 nM

## COCCN1CC2(C1)Oc1ccc(C(=O)NC[C@H](O)CN3CCc4ccccc4C3)cc1NC2=O [Compound 13]
[1]; Homo sapiens, Z-138, 144 h
  IC50: 47 nM

## CS(=O)(=O)N1CC2(C1)Oc1ccc(C(=O)NC[C@H](O)CN3CCc4ccccc4C3)cc1NC2=O [Compound 14]
[1]; Homo sapiens, Z-138, 144 h
  IC50: 14 nM

## O=C(NC[C@H](O)CN1CCc2ccccc2C1)c1cc2c(nn1)OC1(CC1)C(=O)N2 [Compound 16]
[1]
  IC50: 90 nM

## O=C(NC[C@H](O)CN1CCc2ccccc2C1)c1ccc2c(c1)NC(=O)C1(CC(O)C1)O2 (stereo partly drawn) [Compound 18]
[1]; Homo sapiens, Z-138, 144 h
  IC50: 18 nM
[2]; 1 mg/kg
  AUC: 0.545 µM·h
  clearance: 71.3 mL/min/kg
  half-life: 24.6 min
[2]; po, 5 mg/kg
  AUC: 0.164 µM·h
  bioavailability: 6.02%

## CCOC1CC2(C1)Oc1ccc(C(=O)NC[C@H](O)CN3CCc4ccccc4C3)cc1NC2=O (stereo partly drawn) [Compound 21]
[1]; Homo sapiens, Z-138, 144 h
  IC50: 18 nM

## CCOC1CC2(C1)Oc1ccc(C(=O)NC[C@H](O)CN3CCc4ccccc4C3)cc1NC2=O (stereo partly drawn) [Compound 22]
[1]
  IC50: 12 nM

## COCCOC1CC2(C1)Oc1ccc(C(=O)NC[C@H](O)CN3CCc4ccccc4C3)cc1NC2=O (stereo partly drawn) [Compound 23]
PRMT5 enzyme
  IC50: 18 nM
[1]; Homo sapiens, Z-138, 144 h
  IC50: 23 nM

## COCCOC1CC2(C1)Oc1ccc(C(=O)NC[C@H](O)CN3CCc4ccccc4C3)cc1NC2=O (stereo partly drawn) [Compound 24]
PRMT5 enzyme
  IC50: 15 nM
[1]
  IC50: 22 nM

## CC(C)OC1CC2(C1)Oc1ccc(C(=O)NC[C@H](O)CN3CCc4ccccc4C3)cc1NC2=O (stereo partly drawn) [Compound 26]
[1]; Homo sapiens, Z-138, 144 h
  IC50: 22 nM

## O=C1CC2(C1)Oc1ccc(C(=O)NC[C@H](O)CN3CCc4ccccc4C3)cc1NC2=O [Compound 27]
[1]; Homo sapiens, Z-138, 144 h
  IC50: 4 nM

## O=C(NC[C@H](O)CN1CCc2ccccc2C1)c1ccc2c(c1)NC(=O)C1(CC(F)(F)C1)O2 [Compound 28]
[1]; Homo sapiens, Z-138, 144 h
  IC50: 10 nM

## O=C(NC[C@H](O)CN1CCc2ccccc2C1)c1cnc2c(c1)NC(=O)C1(CC(F)(F)C1)O2 [Compound 29]
PRMT5 enzyme
  IC50: 16 nM
[1]
  IC50: 6 nM
[2]; [3]
  Clearance rate CL: 37.9 mL/min/kg
  Concentration integral AUC: 981 nM·h
  Half-life T1/2: 35.4 min
[2]; oral administration (5 mg/kg)
  Bioavailability F: 8.99%
  Concentration integral AUC: 441 nM·h

## O=C(NC[C@H](O)CN1CCc2ccccc2C1)c1cc2c(cc1F)OC1(CC1)C(=O)N2 [Compound 32]
[1]; Homo sapiens, Z-138, 144 h
  IC50: 19 nM

## O=C(NC[C@H](O)CN1CCc2ccccc2C1)c1ccc2c(c1)NC(=O)[C@@]1(CCOC1)O2 [Compound 35]
PRMT5 enzyme
  IC50: 11 nM
[1]
  IC50: 22 nM

## O=C(NC[C@H](O)CN1CCc2ccccc2C1)c1ccc2c(c1)NC(=O)[C@]1(CCOC1)O2 [Compound 36]
PRMT5 enzyme
  IC50: 7 nM
[1]
  IC50: 7 nM
[2]; [3]
  Clearance rate CL: 66.3 mL/min/kg
  Concentration integral AUC: 576 nM·h
  Half-life T1/2: 13.2 min
[2]; oral administration (5 mg/kg)
  Bioavailability F: 37.9%
  Concentration integral AUC: 1092 nM·h

## O=C(NC[C@H](O)CN1CCc2ccccc2C1)c1ccc2c(c1)NC(=O)C1(CS(=O)(=O)C1)O2 [Compound 37]
PRMT5 enzyme
  IC50: 8 nM
[1]
  IC50: 8 nM

## O=C(NC[C@H](O)CN1CCc2ccccc2C1)c1ccc2c(c1)NC(=O)C1(CSC1)O2 [Compound 38]
[1]; Homo sapiens, Z-138, 144 h
  IC50: 18 nM

## O=C(NC[C@H](O)CN1CCc2ccccc2C1)c1cnc2c(c1)NC(=O)C21CC1 [Compound 42]
[1]
  IC50: 53 nM

## COc1cc2c(cc1C(=O)NC[C@H](O)CN1CCc3ccccc3C1)NC(=O)C1(CC1)O2 [Compound 47]
PRMT5 enzyme
  IC50: 42 nM
[1]
  IC50: 66.8 nM
